These results are taken from a melting point compilation (Tetko et al.; mined from patent text by program, amines drawn as free bases though some values may be those of a salt).

Structures are written as SMILES. Some results are limits rather than exact numbers.

Usually melting point stands for the temperature of the solid-liquid transition.

As for `C=CCC1C2CCC(C2)C1NC(=O)OCc1ccccc1` (configuration not stated), the melting point came out at 70 °C.

`N#CC(c1ccc(Cl)cc1)N(Cc1ccccc1)C(=O)C(F)(F)F` (configuration not stated) registered a melting point of 131 to 132 °C. Regarding `O=C(c1cn(C(c2ccccc2)(c2ccccc2)c2ccccc2)cn1)c1cc(Cl)cc2c1OCOC2`, the melting point is 175 to 182 °C. In turn, `OCCC1c2ccccc2C(O)=NN1c1cccc(C(F)(F)F)c1` (configuration not stated) displayed a melting point of 183 to 184 °C. In turn, `Cc1cc(-c2ccccc2)n2nc(C(=O)N(C)C3CCCCC3)cc2n1` came in with a melting point of 158 to 162 °C. Regarding `COc1cc(CCNCc2ccccc2)c(CC(=O)O)cc1OC`, the melting point was 213 to 214 °C. The figure for `Nc1c2c(nc3ccccc13)C1CCC2CC1` is 197 to 199 °C; for `O=C(Nc1ccccc1)OCC1(COC(=O)Nc2ccccc2)CS(=O)c2ccccc2C1=O` (configuration not stated) it is 220 to 222 °C.

`CCOC(=O)c1ccn(-c2ccc(OC(F)(F)F)cc2)n1` gave a melting point of 76 to 78 °C. For the molecule `Cc1cc(=O)n(-c2ccccc2)c2[nH]n(-c3ccccc3)c(=O)c12`, the melting point lay within 145 to 147 °C. `COC(=O)c1ccc(CCN(C)CCCC(C#N)(c2cccc(C(=O)OC)c2)C(C)C)cc1` (configuration not stated) came in with a melting point of 108 to 112 °C. Molecule `CC12C=CCC=C1CCC1C2C(O)CC2(C)C(CCO)=CCC12` (configuration not stated) returned a melting point of 213 to 215 °C.

Molecule `c1ccc(-c2nc(CSc3nc4cccc5c4n3CCC5)cs2)cc1` gave a melting point of 116 to 118 °C.

In turn, `O=C(CCC(=O)N1CCC[C@H]1C(=O)O)c1cccs1` registered a melting point of 100 to 102 °C. `CCCCCCCCCCCCCCCC(=O)N[C@@H](Cc1ccc(O)cc1)C(=O)OC` showed a melting point of 100 °C. Molecule `Clc1nc(Cl)c2cc(N3CCCCC3)ccc2n1` gave a melting point of 101 to 102 °C. To `Cn1c(=O)c2cccnc2n(-c2cccc([N+](=O)[O-])c2)c1=O` belongs 234 to 235 °C; to `COc1nc(N)cc2cccnc12`, 178 to 180 °C. `CCCCNC(=O)Oc1ccc2c(N3CCN(CCCC(=O)c4ccc(F)cc4)CC3)noc2c1` showed a melting point of 137 to 141 °C. The molecule `CS(=O)(=O)c1ccc(C(CC2CCCC2)C(N)=O)cc1Br` (configuration not stated) came in with a melting point of 60 to 63 °C. The molecule `CS(=O)(=O)C(=C1CN(C(c2ccccc2)c2ccccc2)C1)c1cccc(F)c1` showed a melting point of 210 °C. The molecule `CCOP(=O)(CSCCOn1cnc2c(N3C(=O)c4ccccc4C3=O)ncnc21)OCC` returned a melting point of 115 to 116 °C. Molecule `O=[N+]([O-])c1ccc(O)c(CSCC(O)CO)c1` (configuration not stated) had a melting point of 130 °C. The figure for `Cc1cccc(NC(=O)NCC(=O)N2[C@@H](C(=O)OC(C)(C)C)C[C@H](C(=O)O)[C@H]2c2ccccc2)c1` (racemic) is 160 °C; for `Cc1c([N+](=O)[O-])ccc(Cl)c1C#N` it is 87.5 to 89.5 °C.

Take `Cc1cnc(-c2c(F)cccc2F)nn1`: the melting point fell in the range of 90 to 93 °C. On to `CC(C)c1nc(C(F)(F)F)ccc1C(=O)c1c(S(C)(=O)=O)noc1C1CC1`, for which the melting point lay in the range of 105 to 106 °C. In turn, `CCCN(CCC)S(=O)(=O)c1cccc(C(=O)Nc2ccc(Br)cc2)c1` gave a melting point of 160 to 162 °C. `O=P(O)(O)C(O)(CCc1nccn1Cc1ccccc1)P(=O)(O)O` gave a melting point of 238 °C. The molecule `O=c1nc(-c2cccc(OCc3ccccc3)n2)sc2ccccc12` gave a melting point of 241 °C. `Cc1nc(-n2cnn(Cc3ccc(F)cc3)c2=O)sc1C(=O)NCc1cccnc1` displayed a melting point of 178 to 179 °C. `COc1cc2c(cc1OC)S(=O)c1ccc(Cl)cc1C(N1CCN(C)CC1)C2` (configuration not stated): the melting point fell in the range of 178 to 179 °C.

On to `COCCn1cc(-c2ccc3nnn(Cc4ccc5ncccc5c4)c3n2)cn1`, for which the melting point lay within 162 to 164 °C.

As for `CC/C=C\CCCCCCCCCCOc1ccc(C(C)=O)o1`, the melting point lay in the range of 36 to 38 °C. For the molecule `COc1ccc(C2(C#Cc3cccc(C#N)c3)CCC(=O)CC2)cc1OC1CCCC1`, the melting point was 124 to 126 °C.

For `COc1cc(-c2nccn2N=Cc2ccc(N(C)C)cc2)cc(OC)c1OC`, the melting point is 232 °C. Take `Cc1nc2ccc(S(=O)(=O)n3c(COC(C)C(=O)O)cc4cc(Cl)ccc43)cc2s1` (configuration not stated): the melting point lay within 106 to 108 °C. As for `CC(=O)OCc1csc(=S)n1CCC(=O)O`, the melting point was 144 °C. `Cc1ccccc1N1CCN(CC(O)COc2cccc3c2CCCC3=O)CC1` (configuration not stated) displayed a melting point of 183 to 184 °C. Molecule `CCOCC(O)(c1cccnc1)C(C)c1ccc(Cl)cc1Cl` (configuration not stated) registered a melting point of 86 °C. Consider `COc1ccc2ccc(C(=O)NCc3ccccc3)c(OC(C)C)c2c1`, for which the melting point lay in the range of 88 to 90 °C.

With `CC(=O)NCC(=O)Nn1cccc1C(=O)c1ccccc1F`, the melting point is 146 to 147 °C.

The molecule `COc1ccc2cc(C3CCN(C[C@H](O)COc4cccc5oc(C6=NC(C)(C)CO6)cc45)CC3)ccc2c1` had a melting point of 133 to 134 °C. `O=[N+]([O-])c1cc2c(Nc3ccc(F)c(Cl)c3)ncnc2cc1OC1CCC1` had a melting point of 235 °C.

In the case of `COc1ccc(N(CCCCO)S(=O)(=O)c2c(F)c(F)c(F)c(F)c2F)cc1`, the melting point was in the range of 88 to 90 °C. `CN1CCCCC1CCc1ccccc1NC(=O)C#Cc1ccccc1` (configuration not stated) displayed a melting point of 104 to 106 °C.

`COc1c(C)c(N2CCN(c3ccc(C(F)(F)F)cc3)CC2)c(C)c2c1OC(C)C2` (configuration not stated) had a melting point of 142 to 145 °C.

In turn, `CCOC(=O)NN=C(c1ccc(Cl)cc1)c1ccc(CSC)cc1` came in with a melting point of 105 to 109 °C.

`CC#CCOc1ccc(SC(C(=O)NO)c2cccc3ccccc23)cc1` (configuration not stated): the melting point came out at 140 °C. For `NCCNC(=S)Nc1c(Cl)cccc1Cl`, the melting point was in the range of 136 to 138 °C.

In turn, `CC(C)c1ccccc1SCc1cn(-c2ccc(S(C)(=O)=O)cc2)c(-c2ccc(Cl)cc2)n1` gave a melting point of 68 to 70 °C.

`O=C(c1sc2c([N+](=O)[O-])c(O)c(O)cc2c1Cl)N1CCCCC1` had a melting point of 254 to 256 °C. To `O=[N+]([O-])c1cnn2ccccc12` belongs 179 to 182 °C. The figure for `Cc1nc(N)sc1-c1ccnc(Nc2cccc(S(=O)(=O)N3CCOCC3)c2)n1` is 215 to 216 °C; for `O=C(O)CCn1ccn(C2CCc3ccccc3C2)c1=S` (configuration not stated) it is 167 to 168 °C; for `COc1cccc2cc(SCCC(=O)O)n(C)c12` it is 120 to 122 °C.

`O=C(c1ccc(-c2ccccc2)cc1)c1ccc2n1Cc1ccccc1N(C(=O)COc1ccc(Cl)cc1)C2` returned a melting point of 155 to 157 °C.

In turn, `CSc1ccc(/C=C/c2ccc(C(=O)O)cn2)cc1` returned a melting point of 250 to 253 °C. Take `COc1cc(C(=O)N2CCC(CCN3CCC(C(=O)c4nc5ccccc5n4Cc4ccccn4)CC3)(c3ccccc3)C2)cc(OC)c1OC` (configuration not stated): the melting point lay in the range of 84 to 89 °C.

`CC(=O)Oc1cccc2c(-c3ccccc3)c3cccc(OC(C)=O)c3c(OC(C)=O)c12` came in with a melting point of 193 to 194 °C. Turning to `CCCCCN(CCC12CC3CC(CC(C3)C1)C2)C(=O)NCC(Cc1ccncc1)Cc1ccncc1`, the melting point fell in the range of 124 to 136 °C. With `Cc1c(NC(=O)CC(C)(C)C)c(C)c2c(c1-c1cccc(N)c1)OCC2c1ccc(C(C)C)cc1` (configuration not stated), the melting point was in the range of 170 to 172 °C. For `CCCCCCCCNCC(O)COc1ccc(SC)cc1C` (configuration not stated), the melting point was in the range of 59 to 60 °C. `Brc1ccc(-c2cc3c(ccc4ccccc43)o2)cc1`: the melting point lay in the range of 154 to 155 °C. `CCC(O)(CC)c1ccc(-c2cccc(COc3ccc(CO)c(CO)c3)c2)c(C)c1` had a melting point of 87 °C. For `N=C(Nc1ccccc1CN1CCOCC1)N1CCOCC1`, the melting point was in the range of 118 to 119 °C. With `CC(C)(C)OC(=O)N(CCCn1ncc2cc(C(=O)O)ccc21)c1ccccn1`, the melting point lay in the range of 129 to 131 °C. In turn, `Cc1c(Br)cccc1NS(=O)(=O)c1cc(S(=O)(=O)Nc2cccc(Br)c2C)c2cc(O)ccc2c1` came in with a melting point of 129 to 131 °C. With `Cc1c(SCc2cccs2)ccnc1CSc1nc2ccccc2[nH]1`, the melting point was 131 to 133 °C. The molecule `ClC1=Nc2ccccc2Oc2c1csc2Cl` registered a melting point of 144 to 145 °C. To `CC(C)(C)OC(=O)CNC1Cc2ccccc2C1` belongs 54 to 55 °C; to `COc1ccc(-c2ccc(C(=O)Nc3ccc4cc(CN5CCCC5)cnc4c3C)cc2)cc1`, 190 to 192 °C; to `COC(=O)CCCc1c(-c2ccc(F)cc2)[nH]c2ccc(-c3ccc(O)cc3)cc12`, 141 to 143 °C. With `O=C1c2c(F)c(F)c(F)c(F)c2C(=O)N1c1ccccc1`, the melting point fell in the range of 210 to 211 °C. In turn, `Cc1ccnc(-c2c(C)noc2C)c1OC1SCC(O)C(O)C1O` (configuration not stated) registered a melting point of 70 to 100 °C. For `CN(C[PH](=O)O)c1cc(Oc2ccc(C(F)(F)F)cc2Cl)ccc1[N+](=O)[O-]`, the melting point is 153 to 154 °C. To `COc1ccc(-c2cnc3cc4cnn(CC#N)c4cc3n2)cc1F` belongs 248 to 252 °C.

As to `CCOC(=O)c1ccc(OCc2cnccn2)cc1`, the melting point was found to be 76.1 °C.

As to `CS(=O)(=O)c1ccc(-c2cc(CO[N+](=O)[O-])nn2CC2CCCCC2)cc1`, the melting point fell in the range of 98 to 99 °C. The molecule `COc1ccc2c(c1)c(CC(=O)OCCNC(=O)c1cccnc1)c(C)n2C(=O)c1ccc(Cl)cc1` returned a melting point of 123 to 125 °C. `NC(CF)(Cc1cccc(O)c1)C(=O)O` (configuration not stated) showed a melting point of 227 °C. In turn, `COC(=O)Nc1nc2cc(-c3noc4ccccc34)ccc2[nH]1` gave a melting point greater than 300 °C. `CCCCOc1ccc(C(=O)Nc2ccc3cc(C(C)N4CCCC4)cnc3c2C)cc1` (configuration not stated): the melting point lay in the range of 136 to 139 °C. As for `Cc1cccc(C(=O)c2[nH]c3cc(Cl)ccc3c2NC(=O)CC(C)C)c1`, the melting point lay in the range of 182 to 185 °C. With `CCC(Nc1ncnc2c1ncn2C1OC(CO)C(O)C1O)c1ccccc1` (configuration not stated), the melting point is 73 to 84 °C.

In the case of `CC(C)(C)OC(=O)CN1CCOc2ccc([N+](=O)[O-])cc2C1=O`, the melting point amounted to 190 °C. `CCOC(=O)CNC(=O)Oc1c(Cl)cc(Cl)c2cccnc12`: the melting point was 120 °C.
